Our source for the Km values is publication PMC10798532, “Enhanced catalytic performance of penicillin G acylase by covalent immobilization onto functionally-modified magnetic Ni0.4Cu0.5Zn0.1Fe2O4 nanoparticles” (PLOS ONE, 2024).

Molecules are shown by their SMILES. Counter-ions that a name gives are not always drawn.

In the experiment the test system is T1, Penicillin G acylase (PGA).
T1 construct: gene pac; alpha and beta subunits arise from one precursor; E. coli is only a guess (docking used PDB 1GM8)
In words: initial hydrolysis rates, Lineweaver-Burk; 6-APA by PDAB colorimetry at […] nm. To be noted: free enzyme; 20 °C; PBS, pH of kinetic run not printed (optimum pH 8.0); substrate 0.01-0.05 mol/L. The class given is biochemical.

As a reminder, the Km is the concentration of substrate that gives half-maximal velocity. As to `CC1(C)S[C@@H]2[C@H](NC(=O)Cc3ccccc3)C(=O)N2[C@H]1C(=O)O` [Penicillin G potassium salt], the Michaelis constant (Km) was determined as 22.7 mM.
